Where a SMILES comes first, the peptide text is derived from it.
Assays:
[1] = molecular target: T1, CathepsinG, from human neutrophils (Homo sapiens, UniProt P08311); experiment: Enzymatic assay, cathepsin G; settings: for IC50: Cathepsin G IC50
T1 sequence (P08311 21-244): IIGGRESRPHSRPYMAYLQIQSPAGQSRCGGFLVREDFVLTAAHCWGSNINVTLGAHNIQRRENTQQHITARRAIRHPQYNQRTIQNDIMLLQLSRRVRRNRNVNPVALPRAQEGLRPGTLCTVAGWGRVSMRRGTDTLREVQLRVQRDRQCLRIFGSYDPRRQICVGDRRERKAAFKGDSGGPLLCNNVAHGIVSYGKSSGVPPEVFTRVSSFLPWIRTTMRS

[2] = test system: Tryptase, from human lung; experiment: Enzymatic assay, tryptase; settings: at 100 μM
[3] = molecular target: T2, Elastase from human neutrophils (Homo sapiens, UniProt P08246); experiment: Enzymatic assay, elastase; settings: Elastase IC50
T2 sequence (P08246 30-267): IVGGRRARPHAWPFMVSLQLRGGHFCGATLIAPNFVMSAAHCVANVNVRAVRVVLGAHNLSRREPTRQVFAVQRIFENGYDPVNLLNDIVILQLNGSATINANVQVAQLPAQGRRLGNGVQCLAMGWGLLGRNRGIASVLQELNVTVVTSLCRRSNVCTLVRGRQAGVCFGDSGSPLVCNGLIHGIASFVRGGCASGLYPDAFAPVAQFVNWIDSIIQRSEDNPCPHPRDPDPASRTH

[4] = molecular target: Coagulation Factor Xa, from uman plasma (Homo sapiens, UniProt P00742); experiment: Enzymatic assay, coagulation factor Xa
Chymase, from human skin = molecular target: T3, Chymase, from human skin (Homo sapiens, UniProt P23946); experiment: Enzymatic assay, chymase
T3 sequence (P23946 22-247): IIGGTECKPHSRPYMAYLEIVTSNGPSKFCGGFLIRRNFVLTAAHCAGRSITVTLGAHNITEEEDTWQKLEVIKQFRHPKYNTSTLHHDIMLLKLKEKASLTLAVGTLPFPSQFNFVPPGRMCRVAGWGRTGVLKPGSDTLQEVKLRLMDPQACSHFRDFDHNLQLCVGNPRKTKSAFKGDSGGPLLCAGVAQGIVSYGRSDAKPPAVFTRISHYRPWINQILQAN

[5] = molecular target: Chymotrypsin, from human pancreas (Homo sapiens, UniProt P17538); experiment: Enzymatic assay, chymotrypsin; settings: at 100 μM
[6] = molecular target: Urokinase from human urine (Homo sapiens, UniProt P00749); experiment: Enzymatic assay, urokinase
[7] = molecular target: Thrombin, from Human Plasma (Homo sapiens, UniProt P00734); experiment: Enzymatic assay, thrombin
[8] = molecular target: Trypsin, from human pancreas (Homo sapiens, UniProt P07477); experiment: Enzymatic assay, trypsin; settings: at 100 μM

Chain of Coagulation Factor Xa, from uman plasma (P00742 235-488 limits assumed): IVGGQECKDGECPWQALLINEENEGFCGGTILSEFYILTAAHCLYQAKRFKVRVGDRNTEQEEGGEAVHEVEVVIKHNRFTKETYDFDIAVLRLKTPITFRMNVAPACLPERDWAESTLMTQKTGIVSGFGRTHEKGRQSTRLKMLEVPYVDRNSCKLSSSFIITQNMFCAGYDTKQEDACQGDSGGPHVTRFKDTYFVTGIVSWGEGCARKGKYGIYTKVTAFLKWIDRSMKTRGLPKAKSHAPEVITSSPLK
Chain of Coagulation Factor Xa, from uman plasma (P00742 41-179 limits assumed): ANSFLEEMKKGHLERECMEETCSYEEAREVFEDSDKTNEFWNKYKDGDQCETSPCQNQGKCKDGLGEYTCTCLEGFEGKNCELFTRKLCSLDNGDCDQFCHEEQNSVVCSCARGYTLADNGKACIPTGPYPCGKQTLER
Chain of Chymotrypsin, from human pancreas (P17538 19-263): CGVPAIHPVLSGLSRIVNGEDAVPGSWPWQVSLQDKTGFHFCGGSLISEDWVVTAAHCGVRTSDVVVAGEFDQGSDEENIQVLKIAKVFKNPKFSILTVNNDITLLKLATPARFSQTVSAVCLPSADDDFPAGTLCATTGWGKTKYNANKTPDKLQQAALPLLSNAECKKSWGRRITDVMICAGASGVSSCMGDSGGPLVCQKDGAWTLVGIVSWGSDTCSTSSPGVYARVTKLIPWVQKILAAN

Compound	Cathepsin G at 100 μM % ([1]; at 100 μM (stated in cell instead of IC50)) [at 100%]	Tryptase at 100 μM % [2] [%]	IC50 [3] [nM]	FXa at 100 μM % [4] [%]	Chymase at 100 μM % (Chymase, from human skin) [%]	Chymotrypsin at 100 μM % [5]	Urokinase at 100 μM % [6] [%]	Thrombin at 100 μM % [7] [%]	Trypsin at 100 μM % [8] [%]	Cathepsin G at 100 μM % ([1]; at 100 μM) [at 100%]	Tryptase At 100 μM % [2] [%]	IC50 [1] [nM]
CCCC[C@@H]1NC(=O)[C@@H]2CCCN2C(=O)[C@H]2CCCN2C(=O)[C@H](Cc2ccc(O)cc2)NC(=O)[C@H](CCCCN)NC(=O)[C@H](CCC(N)=O)NC(=O)[C@@H]2CCCN2C(=O)[C@@H]2CCCN2C(=O)[C@H]([C@@H](C)CC)NC(=O)[C@H](CO)NC(=O)[C@H](C)NC(=O)[C@H]([C@@H](C)O)NC(=O)[C@H](CCC(=O)O)NC1=O [Ex. 104] (HELM PEPTIDE1{[Nle].E.T.A.S.I.P.P.Q.K.Y.[dP].P}$PEPTIDE1,PEPTIDE1,1:R1-13:R2$$$V2.0)	53.5	0	34	6.2	0	3.1 at 100 μM %	0	7.7	0			
C[C@@H]1NC(=O)[C@H]([C@@H](C)O)NC(=O)[C@@H]2CSSC[C@H](NC(=O)[C@H](CCC(N)=O)NC(=O)[C@@H]3CCCN3C(=O)[C@@H]3CCCN3C(=O)[C@H](CC3CCCCC3)NC(=O)[C@H](CO)NC1=O)C(=O)N[C@@H](Cc1ccccc1)C(=O)N1CCC[C@@H]1C(=O)N1CCC[C@H]1C(=O)N[C@@H](CCc1ccccc1)C(=O)N2 [Ex. 155] (HELM PEPTIDE1{[O=C([C@H](CCc1ccccc1)N[*:1])[*:2]].C.T.A.S.[Cha].P.P.Q.C.F.[dP].P}$PEPTIDE1,PEPTIDE1,2:R3-10:R3|PEPTIDE1,PEPTIDE1,1:R1-13:R2$$$V2.0)			8.2	9	3	83%	12	19	18	52	30	
CC[C@H](C)[C@@H]1NC(=O)[C@H](CO)NC(=O)[C@H](C)NC(=O)[C@H]([C@@H](C)O)NC(=O)[C@@H]2CSSC[C@H](NC(=O)[C@H](CCC(N)=O)NC(=O)[C@@H]3CCCN3C(=O)[C@@H]3CCCN3C1=O)C(=O)N[C@@H](Cc1ccccc1)C(=O)N1CCC[C@@H]1C(=O)N1CCC[C@H]1C(=O)N[C@@H](CCc1ccccc1)C(=O)N2 [Ex. 146] (HELM PEPTIDE1{[O=C([C@H](CCc1ccccc1)N[*:1])[*:2]].C.T.A.S.I.P.P.Q.C.F.[dP].P}$PEPTIDE1,PEPTIDE1,2:R3-10:R3|PEPTIDE1,PEPTIDE1,1:R1-13:R2$$$V2.0)			12	1	0	87%	0	11	3	1	22	
CCCCCCCC[C@@H]1NC(=O)[C@@H]2CCCN2C(=O)[C@H]2CCCN2C(=O)[C@H](CCC(N)=O)NC(=O)[C@@H]2CSSC[C@H](NC1=O)C(=O)N[C@@H]([C@@H](C)O)C(=O)N[C@@H](C)C(=O)N[C@@H](CO)C(=O)N[C@@H](CCCCCCCC)C(=O)N1CCC[C@H]1C(=O)N1CCC[C@H]1C(=O)N[C@@H](CCC(N)=O)C(=O)N2 [Ex. 148] (HELM PEPTIDE1{[CCCCCCCC[C@H](N[*:1])C(=O)[*:2]].C.T.A.S.[CCCCCCCC[C@H](N[*:1])C(=O)[*:2]].P.P.Q.C.Q.[dP].P}$PEPTIDE1,PEPTIDE1,2:R3-10:R3|PEPTIDE1,PEPTIDE1,1:R1-13:R2$$$V2.0)			11	8	7	91%	12	32	9	52	30	
CC[C@H](C)[C@@H]1NC(=O)[C@@H]2CCCN2C(=O)[C@@H]2CCCN2C(=O)[C@H](CC(=O)O)NC(=O)[C@H](CO)NC(=O)[C@H](CCCCN)NC(=O)[C@H]([C@@H](C)O)NC(=O)[C@@H]2CSSC[C@H](NC1=O)C(=O)N[C@@H]([C@@H](C)O)C(=O)N1CCC[C@@H]1C(=O)N1CCC[C@H]1C(=O)N[C@@H](CCc1ccccc1)C(=O)N2 [Ex. 28] (HELM PEPTIDE1{[O=C([C@H](CCc1ccccc1)N[*:1])[*:2]].C.T.K.S.D.P.P.I.C.T.[dP].P}$PEPTIDE1,PEPTIDE1,2:R3-10:R3|PEPTIDE1,PEPTIDE1,1:R1-13:R2$$$V2.0)		0	> 100000	6	0	32%	1	12	95			39
CCCC[C@@H]1NC(=O)[C@@H]2CCCN2C(=O)[C@H]2CCCN2C(=O)[C@H](Cc2ccc(O)cc2)NC(=O)[C@@H]2CSSC[C@H](NC1=O)C(=O)N[C@@H]([C@@H](C)O)C(=O)N[C@@H](C)C(=O)N[C@@H](CO)C(=O)N[C@@H]([C@@H](C)CC)C(=O)N1CCC[C@H]1C(=O)N1CC(NC(=O)c3ccccc3)C[C@H]1C(=O)N[C@@H](CCC(N)=O)C(=O)N2 (single isomer, unassigned) [Ex. 138]			19	12.6	4.6	77.1%	14.4	17.1	12.2		0	43900
CC[C@H](C)[C@@H]1NC(=O)[C@H](CO)NC(=O)[C@H](C)NC(=O)[C@H]([C@@H](C)O)NC(=O)[C@@H]2CSSC[C@H](NC(=O)[C@H](CCC(N)=O)NC(=O)[C@@H]3CCCN3C(=O)[C@@H]3CCCN3C1=O)C(=O)N[C@@H](Cc1ccc(O)cc1)C(=O)N[C@H](CCCCN)C(=O)N[C@@H](CCC(=O)O)C(=O)N[C@@H](CCc1ccccc1)C(=O)N2 [compound 174] (HELM PEPTIDE1{[O=C([C@H](CCc1ccccc1)N[*:1])[*:2]].C.T.A.S.I.P.P.Q.C.Y.[dK].E}$PEPTIDE1,PEPTIDE1,2:R3-10:R3|PEPTIDE1,PEPTIDE1,1:R1-13:R2$$$V2.0)			12	3	0	85%	1	11	7	56	10	
CC[C@H](C)[C@@H]1NC(=O)[C@@H]2CCCN2C(=O)[C@@H]2CCCN2C(=O)[C@H](CC(=O)O)NC(=O)[C@H](CO)NC(=O)[C@H](CCCCN)NC(=O)[C@H]([C@@H](C)O)NC(=O)[C@@H]2CSSC[C@H](NC1=O)C(=O)N[C@@H](Cc1ccc(O)cc1)C(=O)N1CCC[C@@H]1C(=O)N1CCC[C@H]1C(=O)N[C@@H](Cc1ccc(O)cc1)C(=O)N2 [Ex. 26] (HELM PEPTIDE1{Y.C.T.K.S.D.P.P.I.C.Y.[dP].P}$PEPTIDE1,PEPTIDE1,2:R3-10:R3|PEPTIDE1,PEPTIDE1,1:R1-13:R2$$$V2.0)		66.4	> 100000	6	0	2.2%	3.1	3	84			49
CCCCCCCC[C@@H]1NC(=O)[C@@H]2CCCN2C(=O)[C@H]2CCCN2C(=O)[C@H](Cc2ccc(O)cc2)NC(=O)[C@H](CCCCN)NC(=O)[C@H](CCC(N)=O)NC(=O)[C@@H]2CCCN2C(=O)[C@@H]2CCCN2C(=O)[C@H]([C@@H](C)CC)NC(=O)[C@H](CO)NC(=O)[C@H](C)NC(=O)[C@H]([C@@H](C)O)NC(=O)[C@H](CCC(=O)O)NC1=O [Ex. 156] (HELM PEPTIDE1{[CCCCCCCC[C@H](N[*:1])C(=O)[*:2]].E.T.A.S.I.P.P.Q.K.Y.[dP].P}$PEPTIDE1,PEPTIDE1,1:R1-13:R2$$$V2.0)			7.5	0	0	5%	7	17	0	46	15	

Reference: patent US8658604B2, “Template-fixed beta-hairpin peptidomimetics with protease inhibitory activity” (Polyphor Ltd, priority 2005, dated 2014)
